This test has as its target T1, DLK (Homo sapiens, UniProt Q12852).
T1 sequence (Q12852 1-520): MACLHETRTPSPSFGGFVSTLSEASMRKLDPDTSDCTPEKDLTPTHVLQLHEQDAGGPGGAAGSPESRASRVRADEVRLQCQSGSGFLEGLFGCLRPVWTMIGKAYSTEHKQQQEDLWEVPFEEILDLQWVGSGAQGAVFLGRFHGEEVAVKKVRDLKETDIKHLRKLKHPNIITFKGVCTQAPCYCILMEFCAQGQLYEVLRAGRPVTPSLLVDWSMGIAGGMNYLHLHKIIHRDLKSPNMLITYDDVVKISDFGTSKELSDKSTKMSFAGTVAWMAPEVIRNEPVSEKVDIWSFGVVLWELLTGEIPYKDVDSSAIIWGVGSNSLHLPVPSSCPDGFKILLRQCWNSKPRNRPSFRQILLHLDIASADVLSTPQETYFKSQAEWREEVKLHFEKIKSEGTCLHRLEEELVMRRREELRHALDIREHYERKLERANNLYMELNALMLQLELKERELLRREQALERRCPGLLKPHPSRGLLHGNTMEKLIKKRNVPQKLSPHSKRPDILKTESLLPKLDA
Put plainly: biochemical.

This is an account of results in patent US10028942B2 (priority 2013, dated 2018).

One may read the Ki as the dissociation constant of the complex between target and ligand, obtained from inhibition or displacement.

`CC(C)n1nc(-c2cnc3[nH]cnc3c2)cc1C1CN(C2COC2)C1` [Compound 62, 6-(1-isopropyl-5-(1-(oxetan-3-yl)aze-tidin-3-yl)-1H-pyrazol-3-yl)-3H-imi-dazo[4,5-b]pyridine]: the Ki is above 1000 nM.

As for `CC(C)n1nc(-c2cnc3c(c2)OCCN3)cc1C1CCN(C2COC2)CC1` [Compound 94, 7-(1-isopropyl-5-(1-(oxetan-3-yl)pipe-ridin-4-yl)-1H-pyrazol-3-yl)-3,4-di-hydro-2H-pyrido[3,2-b][1,4]oxazine], the Ki is above 1000 nM.

In turn, `Cc1c[nH]c2ncc(-c3cc(C4CCOC4)n(CC4CC4)n3)cc12` (racemic) [Compound 13, 5-(1-(cyclopropylmethyl)-5-(tetrahydrofuran-3-yl)-1H-pyrazol-3-yl)-3-methyl-1H-pyrrolo[2,3-b]pyridine] returned a Ki of 29 nM. This lies in the double-digit nanomolar range.
